The values that follow come from US20210363110A1, “4-METHYLDIHYDROPYRIMIDINONE COMPOUNDS AND PHARMACEUTICAL USE THEREOF” (Japan Tobacco Inc., priority 2018, published 2021).

Data set [1] in a line: Metabolic stability in liver microsomes, human. It counts as in vitro ADME. The note with it: residual ratio of unreacted substance, 0.2 mg/mL microsomes, NADPH generating system. As for the experimental part:
A test solution was prepared by diluting 10 mM DMSO solution of a test substance with acetonitrile by 100 times.
Human and animal liver microsomes (SEKISUI XENOTECH; Human (H2610), Rat (R1000), Mouse (M1000), Monkey (P2000), Dog (D1000)) were adjusted with potassium phosphate buffer (pH 7.4) to 0.2 mg/mL in the reaction system. Then, 1% of the solution of a test substance prepared was added to the reaction system. Thereto was added an NADPH generating system (prepared according to the method of Non Patent Literature 28), and the metabolic reaction was initiated. At a designated time, 0.1% formic acid-acetonitrile/water (3:1) was added thereto, and the reaction was terminated.
(§1) The sample after termination of the reaction was separated by centrifugation (1400 g, 20 min.), and then the supernatant was measured by LC/MS (UPLC-SQD (waters)) to calculate a residual ratio of unreacted substances.
(In general: Liver microsomes are vesicles of endoplasmic reticulum, rich in cytochrome P450 enzymes.)

A short description of data set [2]: Metabolic stability in hepatocytes, human. The conditions noted are these: residual ratio of unreacted substance, 1×10^6 cells/mL. It is filed as in vitro ADME. As for the experimental part:
A test solution was prepared by diluting 10 mM DMSO solution of a test substance with acetonitrile by 20 times.
Human and animal cryopreserved hepatocyte (BIOIVT; Human (IVT-X008000), Rat (IVT-M00005), Monkey (IVT-M00305), Dog (IVT-M00205)) were adjusted with William's Medium E (SIGMA; W1878) to 1×10^6 cells/mL of a cell suspension, which was then added to a 96-well plate. Then, 1% of the solution of a test substance prepared was added to the reaction system, and the metabolic reaction was initiated. At a designated time, 0.1% formic acid-acetonitrile was added thereto, and the reaction was terminated.
as §1

A short description of data set [3]: Rat pharmacokinetic (PK) assay and measurement of plasma concentrations. The conditions noted are these: male rat, 0.3 mg/kg, DMSO solution, T1/2=0.693/Kel. It counts as in vivo. As for the experimental part:
A DMSO solution (0.1 mL/kg) of test substance (0.3 mg/kg) was administered to a male rat (7-week old), and blood was collected at designated times (5, 10, 15, 30 min., 1, 2, 4, 8, 25 hr). Samples after the blood collection were separated by centrifugation (11000 g, 5 min.) to obtain plasmas.
A double volume of a mixed solution of acetonitrile/water (9:1) was added to a plasma sample obtained in (1) in order that proteins were extracted from the mixture. The sample after extraction was separated by centrifugation (11000 g, 5 min.), and the supernatant was measured by LC/MSMS (Nexera (Shimadzu)-QTrap5500 (AB SCIEX)). A calibration curve was measured simultaneously, and plasma concentrations were calculated.
The elimination rate constant (Kel) was calculated from two points of the elimination phase in the plasma concentration profile, and the half-life (T1/2) was calculated from the elimination rate constant.
Kel=−(ln Conc1−ln Conc2)/(t1−t2)

Data set [4] relates to IL-17 production in plasmas. Description: IL-17 production in plasmas of cytokine-stimulated normal mice. It counts as in vivo, C57BL/6J mice. The conditions noted are these: 0.1 mg/mL suspension, 0.2 mL/head orally, single, 28 hours before IL-1 beta/IL-23 i.v.; blood 2 hours after cytokine. As to the method:
Effects of test substances on IL-17 production in plasmas were assessed in normal mice. The assessment was performed according to Non Patent Literature 32. Nine-week old female C57BL/6J mice (Japan Charles River K. K.) were used as a test animal.
A mixed solution prepared by mixing Recombinant Mouse IL-1 beta/IL-1F2 Protein (R&D systems, INC.) and Recombinant Mouse IL-23 Protein (R&D systems, INC.) at a final concentration of 1.5 μg/mL was administered intravenously to all groups at the tail vein at a volume of 200 μL/head. Blood was collected 2 hours after the administration of cytokine solution.
Administration was performed 28 hours before the administration of cytokine solution. 0.5% (w/v) methyl cellulose (MC) and 0.1 mg/mL of a test substance suspended in 0.5% (w/v) MC were administered orally at a single volume of 0.2 mL/head to Vehicle group and a compound-administered group, respectively.
Blood was separated by centrifugation, and then the IL-17 concentration in plasma was measured with Quantikine (Registered trade mark) Mouse IL-17 ELISA Kit (R&D systems, Inc.).
The IL-17 concentration of Vehicle group was deemed to be 100%, and the IL-17 concentration percentage of the compound-administered group to the Vehicle group was calculated from the following equation.
%=a/b×100 a: IL-17 concentration of the compound-administered group b: IL-17 concentration of the Vehicle group

Take `CC(C)C1=CN(C23CC(C(=O)O)(C2)C3)C(=O)N[C@@]1(C)c1ccc([C@@H]2C[C@H]2C(C)(C)C)c(Cl)c1` [Compound (1), 3-{(S)-4-[4-((1R,2R)-2-tert-Butyl-cyclopropyl)-3-chloro-phenyl]-5-isopropyl-4-methyl-2-oxo-3,4-dihydro-2H-pyrimidin-1-yl}bicyclo[1.1.1]pentane-1-carboxylic acid]: the “Metabolic stability in liver microsomes at 60 min., Human” value in data set [1] was 99%. Also, the “Metabolic stability in hepatocytes at 240 min., Human” value in data set [2] is 94%. Besides, the half-life in data set [3] was 10.5 h. Besides, in data set [4], the “IL-17 concentration (%) relative to Vehicle group” value was determined as 52%.
In the case of `CC[C@H](C)C1=CN(C23CC(C(=O)O)(C2)C3)C(=O)N[C@@]1(C)c1ccc([C@@H]2C[C@H]2C(C)(C)C)c(Cl)c1` [Compound (2), 3-{(S)-5-((S)-sec-Butyl)-4-[4-((1R,2R)-2-tert-butyl-cyclopropyl)-3-chloro-phenyl]-4-methyl-2-oxo-3,4-dihydro-2H-pyrimidin-1-yl}bicyclo[1.1.1]pentane-1-carboxylic acid], in data set [1], the “Metabolic stability in liver microsomes at 60 min., Human” value was determined as 96%. Further, the “Metabolic stability in hepatocytes at 240 min., Human” value in data set [2] stood at 94%. Besides, the half-life in data set [3] is 13.2 h. For the same compound, the “IL-17 concentration (%) relative to Vehicle group” value in data set [4] amounted to 67%.

The half-life is the time in which the quantity being followed falls by half.
